Measured values from patent publication US7728146B2, “Enzyme inhibitors” (Probiodrug AG, priority 2006, dated 2010).
pIC50: −log10 of the molar value.

Each compound was assayed against DP IV (Homo sapiens, UniProt P27487) (assay: DP IV inhibition IC50, parallel-synthesis compounds tested directly following synthesis (without purification)). Conditions: DP IV inhibition; compounds of formula (Ib) from parallel synthesis, tested directly following synthesis (without purification); read-out: IC50.
Type: biochemical
Design: IC50 DP4; other: tested directly following parallel synthesis, without purification; compounds of formula (Ib) from parallel synthesis, tested directly following synthesis
Procedure: Compounds were immediately tested regarding their activity as DP IV inhibitors.
Substances are screened for inhibition of dipeptidyl peptidase (DP IV) by their ability to inhibit the hydrolysis of the DP IV specific substrate Glycyl-Prolyl-4-Nitroanilide (Gly-Pro-pNA). All compounds are diluted in DMSO and IC50 will be determined with 11 serial dilutions (1:2) starting with an final concentration of 100 μM. The final DMSO concentration in the assay is 5% (v/v). The method was automated using a Tecan Genesis Freedom liquid handler and a Genius Pro (Tecan) microplate reader.
DP IV from porcine kidney (pDP IV) or recombinant human DP IV (rhDP IV) is diluted in HEPES buffer to a final activity of approximately 40-50 μU*ml^−1. The DP IV is stored in a cooling rack (4° C.) on the liquid handler.
The assay may becarried out at room temperature using Freedom liquid handler connected with a Genios Pro microplate reader. Each sample is measured in duplicate. Each sample stock solution is prediluted with DMSO in a ratio of 1:5 in a polypropylen 96-well plate. From this predilution 10 serial (1:2) dilutions in DMSO are prepared. 13.5 μl of the 11 DMSO dilutions and DMSO alone are transferred to the measurement microplate (duplicates) and 86.5 μl water, 100 μl HEPES buffer and 50 μl substrate solution are added to each well. The enzymatic reaction is started by addition of 20 μl enzyme solution to each well, and then the microplate is immediately transferred to the microplate reader.
After short mixing (20 s) the release of 4-Nitroanilin (pNA) is monitored at 405 nm for 30 cycles (approx. 18 min).
Post assay calculations are done by the Magellan (Tecan) and Graphit Software. The linear slopes are calculated for each well and averaged for the duplicates. The residue activities are calculated in relation to a sample containing only solvent instead of inhibitor and expressed in %. Residue activities are plotted against the log of inhibitor concentrations and IC50 is calculated by an 4-parameter fitting ranging from 0 to 100%.
Compound NCc1c(-c2ccc(Cl)cc2Cl)ncn1CCO [56b, 2-[5-Aminomethyl-4-(2,4-dichloro-phenyl)-imidazol-1-yl]-ethanol] has a pIC50 of 4.70.
Work on CC(N)c1c(-c2ccc(Cl)cc2Cl)ncn1Cc1ccccc1 (stereo not drawn) [109b, 1-[3-Benzyl-5-(2,4-dichloro-phenyl)-3H-imidazol-4-yl]-ethylamine] yielded a pIC50 of 5.14.
Compound CC(N)c1c(-c2ccc(Cl)cc2Cl)ncn1CCc1ccccc1Cl (stereo not drawn) [63b, 1-[3-[2-(2-Chloro-phenyl)-ethyl]-5-(2,4-dichloro-phenyl)-3H-imidazol-4-yl]-ethylamine] has a pIC50 of 4.72.
NCc1c(-c2ccc(Cl)cc2Cl)ncn1Cc1ccc(Br)cc1 [25b, C-[3-(4-Bromo-benzyl)-5-(2,4-dichloro-phenyl)-3H-imidazol-4-yl]-methylamine] showed a pIC50 of 5.19.
NCc1c(-c2ccc(Cl)cc2Cl)ncn1CCOc1ccccc1 [100b, C-[5-(2,4-Dichloro-phenyl)-3-(2-phenoxy-ethyl)-3H-imidazol-4-yl]-methylamine] was tested, and the pIC50 was 4.46.
CC(N)c1c(-c2ccc(Cl)cc2Cl)ncn1CCc1cccc(Cl)c1 (stereo not drawn) [64b, 1-[3-[2-(3-Chloro-phenyl)-ethyl]-5-(2,4-dichloro-phenyl)-3H-imidazol-4-yl]-ethylamine] gave a pIC50 of 4.54.
Work on NCc1c(-c2ccc(Cl)cc2Cl)ncn1CCC1=CCCCC1 [65b, C-[3-(2-Cyclohex-1-enyl-ethyl)-5-(2,4-dichloro-phenyl)-3H-imidazol-4-yl]-methylamine] yielded a pIC50 of 5.55.
With NCc1c(-c2ccc(Cl)cc2Cl)ncn1CCCO [47b, 3-[5-Aminomethyl-4-(2,4-dichloro-phenyl)-imidazol-1-yl]-propan-1-ol] the pIC50 was 4.96.
In the case of NCc1c(-c2ccc(Cl)cc2Cl)ncn1CCOCCO [18b, 2-{2-[5-Aminomethyl-4-(2,4-dichloro-phenyl)-imidazol-1-yl]-ethoxy}-ethanol], the pIC50 was 4.68.
Cc1[nH]ncc1CCCn1cnc(-c2ccc(Cl)cc2Cl)c1CN [87b, C-{5-(2,4-Dichloro-phenyl)-3-[3-(5-methyl-1H-pyrazol-4-yl)-propyl]-3H-imidazol-4-yl}-methylamine] was tested, and the pIC50 was 5.09.
C[C@H](N)c1c(-c2ccc(Cl)cc2Cl)ncn1CCC(c1ccccc1)c1ccccc1 [88b, (S)-1-[5-(2,4-Dichloro-phenyl)-3-(3,3-diphenyl-propyl)-3H-imidazol-4-yl]-ethylamine] showed a pIC50 of 4.55.
CCn1cnc(-c2ccc(Cl)cc2Cl)c1CN [122b, C-[5-(2,4-Dichloro-phenyl)-3-ethyl-3H-imidazol-4-yl]-methylamine] gave a pIC50 of 4.34.
NCc1c(-c2ccc(Cl)cc2Cl)ncn1CCCc1ccccc1 [91b, C-[5-(2,4-Dichloro-phenyl)-3-(3-phenyl-propyl)-3H-imidazol-4-yl]-methylamine] showed a pIC50 of 4.90.
With NCc1c(-c2ccc(Cl)cc2Cl)ncn1CCc1ccc(Cl)cc1 [102b, C-[3-[2-(4-Chloro-phenyl)-ethyl]-5-(2,4-dichloro-phenyl)-3H-imidazol-4-yl]-methylamine] the pIC50 was 4.72.
Work on NCc1c(-c2ccc(Cl)cc2Cl)ncn1Cc1ccncc1 [94b, C-[5-(2,4-Dichloro-phenyl)-3-pyridin-4-ylmethyl-3H-imidazol-4-yl]-methylamine] yielded a pIC50 of 5.09.
With NCc1c(-c2ccc(Cl)cc2Cl)ncn1CC1CCCO1 (stereo not drawn) [Example 17b, C-[5-(2,4-dichloro-phenyl)-3-(tetrahydro-furan-2-ylmethyl)-3H-imidazol-4-yl]-methylamine] the pIC50 was 5.72.
For NCc1c(-c2ccc(Cl)cc2Cl)ncn1Cc1c(F)cccc1Cl [123b, C-[3-(2-Chloro-6-fluoro-benzyl)-5-(2,4-dichloro-phenyl)-3H-imidazol-4-yl]-methylamine], the pIC50 was 5.72.
COc1cccc(Cn2cnc(-c3ccc(Cl)cc3Cl)c2C(C)N)c1 (stereo not drawn) [76b, 1-[5-(2,4-Dichloro-phenyl)-3-(3-methoxy-benzyl)-3H-imidazol-4-yl]-ethylamine] showed a pIC50 of 5.00.
With NCc1c(-c2ccc(Cl)cc2Cl)ncn1CCN1CCOCC1 [10b, C-[5-(2,4-Dichloro-phenyl)-3-(2-morpholin-4-yl-ethyl)-3H-imidazol-4-yl]-methylamine] the pIC50 was 4.90.

Same assay, conditions: tested directly following parallel synthesis, without purification; read-out: IC50 DP4
With NCc1c(-c2ccc(F)cc2F)ncn1Cc1ccc2c(c1)OCO2 [Example 81a, C-[3-Ben-zo[1,3]di-oxol-5-yl-methyl-5-(2,4-difluoro-phenyl)-3H-imid-azol-4-yl]-methyl-amine] the pIC50 was 4.33.
NCc1c(-c2ccc(F)cc2Cl)ncn1Cc1cccc(F)c1 [Example 10a, C-[5-(2-Chloro-4-fluoro-phenyl)-3-(3-fluoro-benzyl)-3H-imid-azol-4-yl]-methyl-amine] was tested, and the pIC50 was 4.84.
Compound CC(C)(C)Cn1cnc(-c2ccc(F)cc2Cl)c1CN [Example 21a, C-[5-(2-Chloro-4-fluoro-phenyl)-3-(2,2-di-methyl-propyl)-3H-imid-azol-4-yl]-methyl-amine] has a pIC50 of 4.45.
With CCOc1ccccc1Cn1cnc(-c2ccc(F)cc2F)c1CN [Example 82a, C-[5-(2,4-Difluoro-phenyl)-3-(2-ethoxy-benzyl)-3H-imid-azol-4-yl]-methyl-amine] the pIC50 was 4.84.
NCc1c(-c2ccc(F)cc2Cl)ncn1Cc1ccc(F)cc1Cl [Example 29a, C-[3-(2-Chloro-4-fluoro-benzyl)-5-(2-chlo-ro-4-fluoro-phenyl)-3H-imid-azol-4-yl]-methyl-amine] showed a pIC50 of 4.50.
CCCn1cnc(-c2ccc(F)cc2Cl)c1CN [Example 8a, C-[5-(2-Chloro-4-fluoro-phenyl)-3-pro-pyl-3H-imid-azol-4-yl]-methyl-amine] gave a pIC50 of 4.31.
For NCc1c(-c2ccc(F)cc2F)ncn1Cc1ccccc1 [Example 80a, C-[3-Benzyl-5-(2,4-di-fluoro-phenyl)-3H-imid-azol-4-yl]-methyl-amine], the pIC50 was 4.70.
With NCc1c(-c2ccc(Cl)cc2Cl)ncn1Cc1cccs1 [Example 32a, C-[5-(2,4-Di-chloro-phenyl)-3-thio-phen-2-yl-methyl-3H-imid-azol-4-yl]-methyl-amine] the pIC50 was 7.00.
Work on NCc1c(-c2ccc(F)cc2Cl)ncn1Cc1ccc(F)cc1F [Example 7a, C-[5-(2-Chloro-4-fluoro-phenyl)-3-(2,4-difluoro-benzyl)-3H-imid-azol-4-yl]-methyl-amine] yielded a pIC50 of 4.57.
Cc1ccc(Cn2cnc(-c3ccc(F)cc3Cl)c2CN)cc1 [Example 24a, C-[5-(2-Chloro-4-fluoro-phenyl)-3-(4-methyl-benzyl)-3H-imid-dazol-4-yl]-methyl-amine] showed a pIC50 of 4.36.
For Cc1ccc(-c2ncn(Cc3cc(Br)ccc3F)c2CN)c(C)c1 [Example 68a, C-[3-(5-Bro-mo-2-fluoro-benzyl)-5-(2,4-dimethyl-phenyl)-3H-imid-azol-4-yl]-methyl-amine], the pIC50 was 4.42.
NCc1c(-c2ccc(F)cc2Cl)ncn1Cc1c(F)cccc1Cl [Example 13a, C-[3-(2-Chloro-6-fluoro-benzyl)-5-(2-chloro-4-fluoro-phenyl)-3H-imid-azol-4-yl]-methyl-amine] gave a pIC50 of 4.44.
For NCc1c(-c2ccc(Cl)cc2Cl)ncn1Cc1ccccc1OC(F)(F)F [Example 55a, C-[5-(2,4-Dichloro-phenyl)-3-(2-tri-fluorometh-oxy-benzyl)-3H-imid-azol-4-yl]-methyl-amine], the pIC50 was 7.00.
For NCc1c(-c2ccc(F)cc2F)ncn1Cc1cc(Br)ccc1F [Example 79a, C-[3-(5-Bro-mo-2-fluoro-benzyl)-5-(2,4-difluoro-phenyl)-3H-imid-azol-4-yl]-methyl-amine], the pIC50 was 4.49.
CCOc1ccccc1Cn1cnc(-c2ccc(F)cc2Cl)c1CN [Example 18a, C-[5-(2-Chloro-4-fluoro-phenyl)-3-(2-ethoxy-benzyl)-3H-imidazol-4-yl]-methylamine] showed a pIC50 of 5.19.
NCc1c(-c2ccc(F)cc2F)ncn1Cc1ccc(F)cc1 [Example 74a, C-[5-(2,4-Difluoro-phenyl)-3-(4-fluoro-benzyl)-3H-imid-azol-4-yl]-methyl-amine] gave a pIC50 of 4.35.
Work on NCc1c(-c2ccc(Cl)cc2Cl)ncn1Cc1ccccc1 [Example 47a, C-[3-Ben-zyl-5-(2,4-dichloro-phenyl)-3H-imid-azol-4-yl]-methyl-amine] yielded a pIC50 of 7.00.
In the case of CC(C)(C)Cn1cnc(-c2ccc(F)cc2F)c1CN [Example 83a, C-[5-(2,4-Difluoro-phenyl)-3-(2,2-dimethyl-propyl)-3H-imid-azol-4-yl]-methyl-amine], the pIC50 was 4.57.
For NCc1c(-c2ccc(Cl)cc2Cl)ncn1Cc1ccc(Cl)c(Cl)c1 [Example 58a, C-[3-(3,4-Dichloro-benzyl)-5-(2,4-dichloro-phenyl)-3H-imid-azol-4-yl]-methyl-amine], the pIC50 was 5.72.
NCc1c(-c2ccc(F)cc2Cl)ncn1Cc1ccc(Cl)c(Cl)c1 [Example 25a, C-[5-(2-Chloro-4-fluoro-phenyl)-3-(3,4-di-chloro-benzyl)-3H-imid-azol-4-yl]-methyl-amine] was tested, and the pIC50 was 4.48.
